The source of these data is patent US12178800B2, “Sulforaphane-melatonin-like compound” (priority 2018, dated 2024).

Structures are written as SMILES.

One test relates to mouse tongues. The experiment in a line: Histopathology (H&E) of tongue specimens after X-ray irradiation. Type of test: in vivo, ICR mice. The conditions noted are these: 12 days post-irradiation.
The test system of another test is cyclooxygenase-2 (COX-2). The experiment in a line: COX-2 immunohistochemistry of irradiated skin. Type of test: in vivo, Gottingen mini-pigs. The conditions noted are these: 7, 21 and 35 days after irradiation. On the procedure:
After incubation in normal horse serum for 60 min to prevent nonspecific binding, the skin sections were incubated with mouse anti-nuclear factor (NF)-κB (sc-109, 1:200; Santa Cruz Biotechnology, Santa Cruz, CA, USA) and mouse anti-COX-2 (18-7379, 1:200; Zymed, USA) in phosphate buffered saline-Tween (PBS-T overnight at 4° C. The sections were subsequently incubated with biotinylated horse anti-mouse IgG (VECTASTAIN Elite ABC Kit; Vector Laboratories, USA). The immunoreactivity was assessed using the avidin-biotin peroxidase complex (VECTASTAIN Elite ABC Kit; Vector Laboratories). The peroxidase reaction was developed using a diaminobenzidine substrate kit (DAB Substrate Kit SK-4100; Vector Laboratories). As a control, the primary antibodies were omitted from the immunohistochemical analysis of a few test sections in each experiment. The sections were then counterstained with hematoxylin before being mounted.

The test system of the next test is irradiated skin of pigs. The experiment in a line: Gamma-radiation-induced dermatitis in mini-pigs, clinical skin reaction score. Type of test: in vivo, Gottingen mini-pigs. From the text: Male Gottingen mini-pigs (mean weight, 19 kg; range, 18-20 kg; age, 6-7 months), obtained from Institute of Animal Breeding and Genetics, University of Gottingen, Germany, were used in these experiments. The mini-pigs were provided with tap water and commercial laboratory piglet chow from Purina Germany (Purina laboratory pig chow-5085) containing crude protein, fat, fiber, and ash, as well as calcium, phosphorus, and moisture (14.5, 4, 5, 8, 0.55, 1, and 14%, respectively). In addition, no antibiotic supplements were used. All animal experiments were performed in compliance to The German Animal Welfare Act.
A formulation in accordance with embodiments of the present invention appropriate for topical administration was obtained by adding 200 mg of carbopol (Carbopol 934P; Lubrizol, USA) to 2.5 mL of distilled water and solubilizing 200 mg of 6OHM-6-HITC in 2 mL of ethanol. An appropriate amount of the ethanolic dispersion was transferred to the aqueous dispersion of carbopol. Methanol (1.25 mL) was mixed with 1 mL of ethanol and added to the 6OHM-6-HITC and carbopol mixture, which was gradually stirred, and carbopol was allowed to soak for 2 h. Triethanolamine (100 mg; Sigma-Aldrich, USA) was added to neutralize the carbopol solution and facilitate the formation of a gel, after which the pH was adjusted to 6.8. A vehicle cream was prepared using the same ingredients and identical methods as the cream, but 6OHM-6-HITC was omitted from the mixture. […] For topical treatment, 6OHM-6-HITC or the vehicle cream (concentration, 200 mg/cm^2) was spread on the irradiated skin of pigs twice daily for 35 days, and the first application was performed immediately after irradiation.
To observe the effects of gamma-radiation on the skin of mini-pigs (3 animals per group), the dorsal skin was irradiated. […]
The pigs were evaluated every week during the five weeks following the irradiation, and their skin reactions were scored using a clinical status scoring system. […]

On to `COc1cc2c(CCCCN=C=S)c[nH]c2cc1O` [6OHM-6-HITC], for which, in the test on mouse tongues, the “degree of epidermolysis of the tongue” value was “preserved” and the “infiltration of inflammatory cells” value is listed as “decreased”. Besides, the “COX-2 expression in the irradiated skin vs. vehicle-treated skin” value in the test on cyclooxygenase-2 (COX-2) was “lower”. In addition, the “clinical changes of irradiated skin vs. vehicle-treated” value in the test with irradiated skin of pigs (1 week after 50 Gy gamma irradiation, topical twice daily) is recorded as “similar”. Further, in the test with irradiated skin of pigs (50 Gy gamma irradiation, topical twice daily for 35 days), the “severity of skin reaction vs. vehicle-treated irradiation group” value was “decreased severity in the skin reaction”. For the same compound, the “time at which beneficial effects on the dermatitis appeared” value with irradiated skin of pigs (after 50 Gy gamma irradiation, topical twice daily) was 2 weeks.
